According to PubChem BioAssay AID1963871 (Molecular Pharmacology Branch, DTP, NCI, 2024):

Test system: KRAS-mutant PDC multicell tumor spheroid viability
Assay: Anticancer human tumor 521955-158-R2-J5-PDC patient-derived pancreatic carcinoma cell line growth inhibition [KRAS2]
Conditions: for viability, T/C: stronger effect = lower value
Excerpt: Multicellular complex tumor spheroid response to RAS pathway inhibitors in combination with a targeted agents in patient-derived cell lines with oncogenic KRAS variants from multiple cancer types
A high-throughput screen of multi-cell type tumor spheroids was designed to identify active combinations of targeted small molecules and KRAS pathway inhibitors. Complex spheroids include a stromal component modeled by human endothelial cells (HUVEC) and fibroblasts modeled by human mesenchymal stem cells (MSCs). The concentration ranges selected for each drug and investigational agent were based upon clinically achievable concentrations if the clinical Cmax of the agent was known.
Compounds. The drugs and investigational agents: BI-3406 (NSC825286), BAY-293 (NSC824723), batoprotafib (TNO155; NSC825523), sotorasib (AMG 510; NSC818433), MRTX1257 (NSC819558), elimusertib (BAY 1895344; NSC800525), molibresib (GSK525762; NSC774829), temuterkib (LY3214996; NSC803410), venetoclax (NSC766270), alisertib (NSC759677), olaparib (NSC753686), talazoparib (NSC767125), erdafitinib (NSC781556), ipatasertib (NSC767898), cabozantinib (NSC761068), nintedanib (NSC756659), abemaciclib (NSC768073), docetaxel (NSC628503), trametinib (NSC758246), and sapanisertib (NSC764658) were obtained from the National Cancer Institute (NCI) Developmental Therapeutics Program Chemical Repository. The FDA-approved anticancer drug set is available from the Developmental Therapeutics Program. […] The stock solutions were prepared in dimethyl sulfoxide (DMSO, Sigma-Aldrich, St. Louis, MO, cat. D2650) at 800-fold the tested concentration and stored at -70 degrees C prior to their use. All drugs and investigational agents were tested over a range starting from a high concentration at or near the clinical Cmax and decreasing in half-log increments. If the clinical Cmax for an agent had not been determined, the highest concentration tested was 10 microM.
Cell Culture. All cells were maintained in an incubator at 37 degrees C and 5% CO2 with 95% humidity. The PDC lines were cultured according to standard operating procedures established by the NCI PDMR (https://pdmr.cancer.gov/sops/default.htm). Briefly, all PDCs were thawed and cultured in Matrigel-coated flasks prepared with a working solution of 1X Ham's F-12 nutrient mix, without supplementation (Invitrogen, Waltham, MA, cat. 11765054), 100 U/mL penicillin-streptomycin (Invitrogen, cat. 15140122), and 2.5% Matrigel (Corning Inc., Corning, NY, cat. 354248) for the first three passages. All PDCs were cultured in complete DMEM/F-12 media containing advanced DMEM/F-12 (Invitrogen, cat. 12634028), 4.9% defined fetal bovine serum, heat inactivated (HyClone Laboratories Inc., Logan, UT, cat. SH30070.03HI), 389 ng/mL hydrocortisone (Sigma-Aldrich, cat. H4001), 9.7 ng/mL human EGF recombinant protein (Invitrogen, cat. PHG0313), 23.4 microg/mL adenine (Sigma-Aldrich, cat. A2786), 97.3 U/mL penicillin-streptomycin (Invitrogen, cat. 15140122), 1.9 mM L-glutamine (Invitrogen, cat. 25030081), and 9.7 microM Y-27632 dihydrochloride (Tocris Bioscience, Bristol, United Kingdom, cat. 1254). The PDCs were cultured in complete DMEM/F12 media without 9.7 microM Y-27632 dihydrochloride for at least two passages prior to the screen. The established cell line HOP-62 was cultured in RPMI 1640 medium, HEPES (Invitrogen, cat. 22400105) with 10% defined fetal bovine serum (HyClone Laboratories Inc., cat. SH30070.03) and 2 mM L-glutamine (Invitrogen, cat. 25030081). The pooled donor HUVEC were cultured in endothelial cell growth medium 2 (PromoCell, Heidelberg, Germany, cat. C-22011) and the hMSC were cultured in mesenchymal stem cell growth medium 2 (PromoCell, cat. C-28009). For all experiments, HUVEC and hMSC were used at passages </=5, while the malignant cell lines were used at passages </=15. […]
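Further: viability read after seven days of drug exposure.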

## CC(=O)OC12COC1CC(O)C1(C)C(=O)C(O)C3=C(C)C(OC(=O)C(O)C(NC(=O)OC(C)(C)C)c4ccccc4)CC(O)(C(OC(=O)c4ccccc4)C21)C3(C)C (configuration not stated)
Compound 0.01 µM
  viability, T/C: 22.3% [middle of 5 runs]
Compound 0.0316 µM
  viability, T/C: 15.3% [middle of 5 runs]
Compound 0.1 µM
  viability, T/C: 14.2% [middle of 5 runs]
Compound 0.316 µM
  viability, T/C: 15.2% [middle of 5 runs]
Compound 1 µM
  viability, T/C: 18.1% [middle of 5 runs]
Compound 3.16 µM
  viability, T/C: 21.9% [middle of 5 runs]
Curve of compound
  IC50: < 0.01 µM

## CC(C)NCC(C(=O)N1CCN(c2ncnc3c2C(C)CC3O)CC1)c1ccc(Cl)cc1 (configuration not stated) + CNCc1ccccc1-c1csc(C(C)Nc2nc(C)nc3cc(OC)c(OC)cc23)c1
Curve of first compound, second compound 0.1 µM
  IC50: > 10 µM
Curve of first compound, second compound 0.316 µM
  IC50: > 10 µM
Curve of first compound, second compound 1 µM
  IC50: 4.28 µM
Curve of first compound, second compound 3.16 µM
  IC50: < 0.0316 µM
Curve of first compound, second compound 10 µM
  IC50: < 0.0316 µM
Second compound 0.1 µM, first compound 0.0316 µM
  viability, T/C: 103%
Second compound 0.1 µM, first compound 0.1 µM
  viability, T/C: 104%
Second compound 0.1 µM, first compound 0.316 µM
  viability, T/C: 83.4%
Second compound 0.1 µM, first compound 1 µM
  viability, T/C: 77.6%
Second compound 0.1 µM, first compound 3.16 µM
  viability, T/C: 84.1%
Second compound 0.1 µM, first compound 10 µM
  viability, T/C: 66.3%
Second compound 0.316 µM, first compound 0.0316 µM
  viability, T/C: 101%
Second compound 0.316 µM, first compound 0.1 µM
  viability, T/C: 102%
Second compound 0.316 µM, first compound 0.316 µM
  viability, T/C: 79.9%
Second compound 0.316 µM, first compound 1 µM
  viability, T/C: 70.1%
Second compound 0.316 µM, first compound 3.16 µM
  viability, T/C: 67.5%
Second compound 0.316 µM, first compound 10 µM
  viability, T/C: 55.9%
Second compound 1 µM, first compound 0.0316 µM
  viability, T/C: 109%
Second compound 1 µM, first compound 0.1 µM
  viability, T/C: 98.5%
Second compound 1 µM, first compound 0.316 µM
  viability, T/C: 75.4%
Second compound 1 µM, first compound 1 µM
  viability, T/C: 66.5%
Second compound 1 µM, first compound 3.16 µM
  viability, T/C: 58%
Second compound 1 µM, first compound 10 µM
  viability, T/C: 38.2%
Second compound 3.16 µM, first compound 0.0316 µM
  viability, T/C: 1.5%
Second compound 3.16 µM, first compound 0.1 µM
  viability, T/C: 1.33%
Second compound 3.16 µM, first compound 0.316 µM
  viability, T/C: 1.91%
Second compound 3.16 µM, first compound 1 µM
  viability, T/C: 0.59%
Second compound 3.16 µM, first compound 3.16 µM
  viability, T/C: 0.9%
Second compound 3.16 µM, first compound 10 µM
  viability, T/C: 0.33%
Second compound 10 µM, first compound 0.0316 µM
  viability, T/C: 0.61%
Second compound 10 µM, first compound 0.1 µM
  viability, T/C: 1.13%
Second compound 10 µM, first compound 0.316 µM
  viability, T/C: 0.73%
Second compound 10 µM, first compound 1 µM
  viability, T/C: 0.33%
Second compound 10 µM, first compound 3.16 µM
  viability, T/C: 2.15%
Second compound 10 µM, first compound 10 µM
  viability, T/C: 0.33%
